This note sets out measurements from US12011426B2, “Methods of metabolic regulation of mitochondria for treating neural injury and neurological disorders” (The USA, as represented by the Secretary, Dept. of Health …, priority 2018, dated 2024).

Test [1] concerns retina ganglion cells (RGCs). Briefly: Optic nerve crush (ONC), retina ganglion cell survival. It counts as in vivo, ground squirrel. To be noted: awake animals; injected into the eye before and after the ONC surgery. The text has this: Previous work has shown that succinate regulates macrophages, causing them to switch between pro-inflammatory and anti-inflammatory states (Mills, et al., (2016) Succinate Dehydrogenase Supports Metabolic Repurposing of Mitochondria to Drive Inflammatory Macrophages. Cell, […]; 457-470.e13). Thus, the inventors hypothesized that immune regulation due to reduced succinate levels may occur in the retina during hibernation, and that this may subsequently affect cellular response to neural injury. To test this hypothesis, optic nerve crush (ONC), a classic axonal injury experiment, was performed in awake and in hibernating ground squirrels. Retina ganglion cells (RGCs) appeared to survive ONC during hibernation (FIG. 4). Intriguingly, a key cellular response difference between awake and hibernating animals to ONC is microglial aggregation and activation, in line with the hypothesis that low succinate level during hibernation may prevent microglia from activation in response to injury. To further test this hypothesis, a second experiment was done in which dimethyl malonate (DMM), an inhibitor of SDH, was injected into the eye before and after the ONC surgery in awake animals to create a lower succinate condition, thereby mimicking hibernation. […] To further examine the role of microglia, microglia were pharmacologically eliminated before ONC surgery in awake animals. […]

In a further test the test system is mitochondrial ROS. Description: In situ mitochondrial ROS production in retina after partial ONC (MitoNeoD dye). It counts as in vivo, thirteen lined ground squirrel (TLGS). To be noted: active TLGSs with ONC; intraocular injection. The text has this:
(§1) It is known in the art that a key event in the LPS-induced macrophage activation is the over-production of mitochondrial ROS driven by the hyperpolarization of mitochondrial membrane potential and SDH-accelerated succinate oxidation (Mills et al., 2016). However, for the retina, it is challenging to perform live ROS measurement, because enucleation causes an acute ROS surge due to severing of the optic nerve. Thus, a method was developed to visualize in situ mitochondrial ROS production in thirteen lined ground squirrel (TLGS) retina with optic nerve crush (ONC), that used a mitochondrial ROS dye—MitoNeoD (Shchepinova et al., 2017). […] In active TLGS retina with partial ONC injuries, it was observed that above the optic nerve fiber/RGC layers there were cells decorated with bright MitoNeoOH (oxidized and fluorescent form of MitoNeoD) signals (arrows in FIG. 6D) overlapping with a mitochondrial protein marker (TOM20) (FIGS. 7A, 7B, and 7C). These cells were then confirmed to be mostly microglial cells (FIGS. 7D, 7E, and 7F). It was then confirmed that intraocular injection of DMM indeed lowered SDH activity in the retina of ONC-injured active TLGSs (FIG. 8B).

The subject of test [2] is succinate dehydrogenase (SDH). Briefly: SDH activity in the retina of ONC-injured active TLGSs. The class given is in vivo, thirteen lined ground squirrel (TLGS). To be noted: intraocular injection.
Source text: as §1

Test [3] concerns microglia cell line (BV2). Description: LPS-induced pro-inflammatory cytokine production in a microglia cell line. The class given is cell-based, mouse.
Source text: The direct effect of DMM on microglia was examined by conducting an in vitro experiment using a microglia cell line (BV2).
as §1

[4] abbreviates: cultured microglial cells, 100 ng/ml LPS + 1 mM or 10 mM DMM.
[5] abbreviates: mouse BV-2, concentration not given.

As for `COC(=O)CC(=O)OC` [DMM, dimethyl malonate], in test [1], the “RGC survival after ONC” value was “significantly improved”. Also, in the test on mitochondrial ROS, the “mitochondrial ROS production” value is listed as “significantly alleviated”. In test [2], the “SDH activity in the retina” value is “lowered”. Also, the “response of microglia to LPS” value in test [3] (BV2, DMM 1 or 10 mM) was “significantly attenuated”. For the same compound, in test [3] (setting [4]), the “production of IL1A” value is reported as “significantly reduced” and the “production of MCP-1” value was “significantly reduced”. In addition, in test [3] (setting [5]), the “LPS-induced production of IL-1α” value is listed as “effectively reduced”, the “LPS-induced production of IL-6” value is listed as “effectively reduced” and the “LPS-induced production of MCP-1” value was “effectively reduced”.
